The compound `Fc1ccc2c(C3=CCN(CCC4OCCc5cc(Br)ccc54)CC3)c[nH]c2c1` (stereo not shown) came in with a melting point of 184 to 185.6 °C.
Next, `CNC(=O)c1ccc2c(c1)CCCN2CCN1CC=C(c2c[nH]c3cc(F)ccc23)CC1`: 121 to 125 °C; `NC(=O)c1ccc2c(c1)CCCN2CCN1CC=C(c2c[nH]c3cc(F)ccc23)CC1`: 130 to 133 °C; `O=C(NCCO)c1ccc2c(c1)CCCN2CCN1CC=C(c2c[nH]c3cc(F)ccc23)CC1`: 136 to 140 °C.

A word on the melting point: it is the temperature of the solid-liquid transition.

The values above are taken from patent publication US20040122001A1, “Pharmaceutical compounds” (priority 2000, published 2004).
